The molecules below were run against T1, recombinant human mPGES-1 (Homo sapiens, UniProt O14684) (assay: mPGES-1 inhibition, HTRF detection of PGE2 (Biological Test)).
T1 construct: made in house; host or cells: Rosetta E. coli (microsomal/membrane fraction)
T1 sequence (O14684 1-152): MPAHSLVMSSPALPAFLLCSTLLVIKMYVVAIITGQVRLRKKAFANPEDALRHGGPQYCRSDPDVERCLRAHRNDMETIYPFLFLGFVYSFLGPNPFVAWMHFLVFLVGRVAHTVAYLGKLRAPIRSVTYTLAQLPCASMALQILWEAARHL
Format: biochemical
Method: Microsomes from Rosetta E. coli bacteria expressing recombinant human mPGES-1 is dissolved in 0.1 M KPi pH 7.4 buffer containing 2.5 mM GSH. 50 μl of the enzyme is subsequently dispensed in a 384-well plate. 0.5 μl of the inhibitor dissolved in DMSO at is thereafter added to each well and incubated for 25 minutes at room temperature.
Subsequently, 2 μl of PGH2 dissolved in an appropriate solvent is added to each well and after one minute the acidified stop solution containing FeCl2 is added. 4 μl of the total volume is transferred to a separate plate and diluted 750-fold in two separate steps before HTRF detection of PGE2.
The HTRf detection is performed by the use of a commercially available kit from CisBio essentially according to the manufacturer's protocol. Briefly, 10 μl of the diluted sample is transferred to a white 384-well plate. 5 μl of d2 and 5 μl Eu3+-Cryptate labeled anti-PGE2 is added to each well containing samples by the use of a Multidrop. The plate is covered with a plastic self-adhesive film, centrifuged at 1200 rpm for 1 minute and subsequently stored at +4° C. over night.
After over night incubation the fluorescence is measured by the use of an appropriate microplate reader. The fluorescence of europium cryptate, and d2 are measured using the following excitation and emission wavelength, europium cryptate: λmax^ex=307 nm, λmax^em=620 nm and d2: λmax^ex=620 nm, λmax^em=665 nm), respectively. The extent of the specific FRET is measured as a ratio of the emission intensity at 665 nm vs. that at 620 nm. A standard curve using synthetic PGE2 is used to quantify the amount of PGE2 in unknown samples.

Row | SMILES | inhibition at 10 µM [%]
1 | COCCOc1cc2[nH]c(Nc3c(Cl)cncc3Cl)nc2cc1C(=O)Nc1ccc(Br)cc1 [Example 685, 2-(3,5-Dichloro-pyridin-4-ylamino)-6-(2-methoxy-ethoxy)-N-(4-bromo-phenyl)-1H-benzimidazole-5-carboxamide] | 98
2 | COCCOc1cc2[nH]c(Nc3c(Cl)cncc3Cl)nc2cc1C(=O)NCc1ncccc1C(F)(F)F [Example 686, 2-(3,5-Dichloro-pyridin-4-ylamino)-N-((3-trifluoromethyl-pyridin-2-yl)-methyl)-6-(2-methoxy-ethoxy)-1H-benzimidazole-5-carboxamide] | 99
3 | CN(C)CCOc1cc2[nH]c(Nc3c(Cl)cncc3Cl)nc2cc1C(=O)Nc1ccc(Br)cc1 [Example 687, 2-(3,5-Dichloro-pyridin-4-ylamino)-6-(2-dimethylamino-ethoxy)-N-(4-bromo-phenyl)-1H-benzimidazole-5-carboxamide] | 96
4 | COc1cc2[nH]c(Nc3c(Cl)cncc3Cl)nc2cc1C(=O)NCc1ncccc1C1CCC1 [Example 688, 2-(3,5-Dichloro-pyridin-4-ylamino)-N-((3-cyclobutyl-pyridin-2-yl)-methyl)-6-methoxy-1H-benzimidazole-5-carboxamide] | 100
5 | CCOc1cc2[nH]c(Nc3c(Cl)cncc3Cl)nc2cc1C(=O)NCc1ccccc1C(F)(F)F [Example 689, 2-(3,5-Dichloropyridin-4-ylamino)-N-((2-trifluoromethyl-phen-1-yl)-methyl)-6-ethoxy-1H-benzimidazole-5-carboxamide] | 100
6 | CCOc1cc2[nH]c(Nc3c(Cl)cncc3Cl)nc2cc1C(=O)N[C@H]1CC[C@H](C(F)(F)F)CC1 [Example 690, 2-(3,5-Dichloropyridin-4-ylamino)-N-(trans-4-trifluoromethyl-cyclohex-1-yl)-6-ethoxy-1H-benzimidazole-5-carboxamide] | 100
7 | CCOc1cc2[nH]c(Nc3c(Cl)cncc3Cl)nc2cc1C(=O)NCC(F)(F)C(F)(F)C(F)(F)C(F)(F)F [Example 691, 2-(3,5-Dichloropyridin-4-ylamino)-N-(2,2,3,3,4,4,5,5,5-nonafluoropentyl)-6-ethoxy-1H-benzimidazole-5-carboxamide] | 97
8 | CCOc1cc2[nH]c(Nc3c(Cl)cncc3Cl)nc2cc1C(=O)NCc1ncccc1Cl [Example 693, 2-(3,5-Dichloropyridin-4-ylamino)-N-((3-chloro-pyridin-2-yl)-methyl)-6-ethoxy-1H-benzimidazole-5-carboxamide] | 97
9 | CCOc1cc2[nH]c(Nc3c(Cl)cncc3Cl)nc2cc1C(=O)Nc1ccc(Br)cc1 [Example 695, 2-(3,5-Dichloropyridin-4-ylamino)-N-(4-bromo-phenyl)-6-ethoxy-1H-benzimidazole-6-carboxamide] | 94
10 | O=C(NCC(F)(F)C(F)(F)C(F)(F)C(F)(F)F)c1cc2nc(Nc3ncc(Cl)cc3Cl)[nH]c2cc1OC(F)F [Example 700, 2-(3,5-Dichloro-pyridin-2-yl-amino)-N-(2,2,3,3,4,4,5,5,5-nonafluoro-pentyl)-6-(difluoromethoxy)-1H-benzimidazole-5-carboxamide] | 98
11 | O=C(N[C@H]1CC[C@H](C(F)(F)F)CC1)c1cc2nc(Nc3c(Cl)cncc3Cl)[nH]c2cc1OC(F)F [Example 701, 2-(3,5-Dichloropyridin-4-ylamino)-N-(trans-4-trifluoromethyl-cyclohex-1-yl)-6-difluoromethoxy-1H-benzimidazole-5-carboxamide] | 100
12 | O=C(Nc1ccc(Br)cc1)c1cc2nc(Nc3c(Cl)cncc3Cl)[nH]c2cc1OC(F)F [Example 703, 2-(3,5-Dichloropyridin-4-ylamino)-N-(4-bromo-phenyl)-6-difluoromethoxy-1H-benzimidazole-5-carboxamide] | 98
13 | CCOc1cc2c(cc1C(=O)Nc1ccc(Br)cc1)nc(Nc1c(Cl)cncc1Cl)n2CC(F)(F)F [Example 704] | 100
14 | CCOc1cc2c(cc1C(=O)Nc1cc(C(F)(F)F)ccn1)nc(Nc1c(Cl)cncc1Cl)n2CC(F)(F)F [Example 705] | 94
15 | CC(F)(F)c1cccc(NC(=O)c2cc3nc(Nc4c(Cl)cncc4Cl)[nH]c3cc2OCC(F)(F)F)n1 [Example 706] | 100
16 | O=C(Nc1cccc(C(F)F)n1)c1cc2nc(Nc3c(Cl)cncc3Cl)[nH]c2cc1OCC(F)(F)F [Example 708, 2-(3,5-Dichloropyridin-4-ylamino)-N-(6-difluoromethyl-pyridin-2-yl)-6-(2,2,2-trifluoroethoxy)-1H-benzimidazole-6-carboxamide] | 100
17 | O=C(NCc1ncccc1C(F)F)c1cc2nc(Nc3c(Cl)cncc3Cl)[nH]c2cc1OCC(F)(F)F [Example 711, 2-(3,5-Dichloropyridin-4-ylamino)-N-((3-difluoromethyl-pyridin-2-yl)-methyl)-6-(2,2,2-trifluoro-ethoxy)-1H-benzimidazole-5-carboxamide] | 98

Other lines, results leading:

Row | inhibition at 10 µM [%] | SMILES
18 | 95 | COc1cc2[nH]c(Nc3c(Cl)cncc3Cl)nc2cc1C(=O)Nc1cc(C(F)(F)F)cc(N(C)C)n1 [Example 692, 2-(3,5-Dichloropyridin-4-ylamino)-N-(6-dimethylamino-4-trifluoromethyl-pyridin-2-yl)-6-methoxy-1H-benzimidazole-5-carboxamide]
19 | 98 | CCOc1cc2[nH]c(Nc3c(Cl)cncc3Cl)nc2cc1C(=O)Nc1cc(C(F)(F)F)ccn1 [Example 694, 2-(3,5-Dichloropyridin-4-ylamino)-N-(4-trifluoromethyl-pyridin-2-yl)-6-ethoxy-1H-benzimidazole-6-carboxamide]
20 | 100 | COc1cc2[nH]c(Nc3c(Cl)cncc3Cl)nc2cc1C(=O)Nc1cccc(N(C)C)n1 [Example 696, 2-(3,5-Dichloropyridin-4-ylamino)-N-(6-dimethylamino-pyridin-2-yl)-6-methoxy-1H-benzimidazole-5-carboxamide]
21 | 100 | CCOc1cc2[nH]c(Nc3c(Cl)cncc3Cl)nc2cc1C(=O)Nc1cc(C(F)(F)F)cc(N(C)C)n1 [Example 697]
22 | 99 | CCOc1cc2[nH]c(Nc3c(Cl)cncc3Cl)nc2cc1C(=O)Nc1cccc(C(F)F)n1 [Example 698]
23 | 100 | O=C(Nc1cc(C(F)F)c(F)cn1)c1cc2nc(Nc3c(Cl)cncc3Cl)[nH]c2cc1OCC(F)(F)F [Example 699]
24 | 95 | O=C(Nc1cc(C(F)(F)F)ccn1)c1cc2nc(Nc3c(Cl)cncc3Cl)[nH]c2cc1OC(F)F [Example 702]
25 | 100 | O=C(Nc1ccc(F)c(C(F)F)n1)c1cc2nc(Nc3c(Cl)cncc3Cl)[nH]c2cc1OCC(F)(F)F [Example 707, 2-(3,5-Dichloropyridin-4-ylamino)-N-(6-difluoromethyl-5-fluoro-pyridin-2-yl)-6-(2,2,2-trifluoroethoxy)-1H-benzimidazole-6-carboxamide]
26 | 100 | CCOc1cc2[nH]c(Nc3c(Cl)cncc3Cl)nc2cc1C(=O)Nc1cc(C)cc(C(F)(F)F)n1 [Example 709]
27 | 98 | CCOc1cc2[nH]c(Nc3c(Cl)cncc3Cl)nc2cc1C(=O)Nc1ccc(F)c(C(F)F)n1 [Example 710, 2-(3,5-Dichloropyridin-4-ylamino)-N-(5-fluoro-6-difluoromethyl-pyridin-2-yl)-6-ethoxy-1H-benzimidazole-6-carboxamide]

Source: US9040565B2, “1H-benzimidazole-5-carboxamides as anti-inflammatory agents” (Orexo AB, priority 2008, dated 2015)
